Assay [1] relates to SOCE (store operated calcium entry) in CHO cells. Kind of assay: Assay of SOCE (store operated calcium entry)-inhibiting action. The assay is classed as cell-based, Chinese hamster. The settings on record: CHO cells, thapsigargin; for inhibition at 10 µM / inhibition at 30 µM / inhibition at 100 µM: Cricetulus griseus, CHO, read-out: SOCE level (percentage of inhibition). In short, it runs like this:
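CHO cells in calcium-free BSS received compound, then 1 μM thapsigargin 2 min later to deplete stores; after 9 min, 2 mM calcium chloride (final) added. Percent inhibition of the rise in intracellular calcium determined at various compound concentrations.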

Assay [2] concerns IICR (IP3 induced calcium release) in CHO cells. As to the kind of experiment: Assay of IICR (IP3 induced calcium release)-inhibiting action. The format is cell-based, Chinese hamster. The settings on record: CHO cells, 10 μM ATP; for inhibition at 10 µM / inhibition at 30 µM / inhibition at 100 µM: Cricetulus griseus, CHO, read-out: IICR level (percentage of inhibition). In short, it runs like this: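 Inhibition (%) of the intracellular calcium increase triggered by 10 μM ATP, measured in CHO cells in BSS with calcium. Compound given 1 min after the buffer exchange and 2 min before ATP; values reported per compound concentration.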

Structures are written as SMILES.

The term inhibition denotes the change of the read-out against control, counted positive when it falls. As to `O=C(CCNC(c1ccccc1)C(O)c1ccccc1)c1ccc(Br)s1` (stereo not drawn) [Example 355, 2-(2-hydroxy-1,2-diphenyl-ethyl)aminoethyl-5-bromo-2-thienylketone], the inhibition at 10 µM in assay [1] (test compound 10 μmol) and in assay [2] (test compound 10 μmol) was 0% throughout. The inhibition at 30 µM in assay [1] (test compound 30 μmol) stood at 16%; in assay [2] (test compound 30 μmol), 0%. The inhibition at 100 µM in assay [1] (test compound 100 μmol) was 16%; in assay [2] (test compound 100 μmol), 50%.

As to `O=C(CCNC(CO)Cc1ccccc1)c1ccc(Br)s1` (stereo not drawn) [Example 357, 2-(N-hydroxy-1-benzylethyl)aminoethyl-5-bromo-2-thienylketone], the inhibition at 10 µM in assay [1] (test compound 10 μmol) and in assay [2] (test compound 10 μmol) was 0% each time. Further, the inhibition at 30 µM turned out to be 9% in assay [1] (test compound 30 μmol) and 0% in assay [2] (test compound 30 μmol). Besides, the inhibition at 100 µM was found to be 47% in assay [1] (test compound 100 μmol) and 70% in assay [2] (test compound 100 μmol).

Turning to `O=C(CCNCCO)c1ccc(Br)s1` [Example 358, 2-(N-hydroxyethyl)aminoethyl-5-bromo-2-thienylketone], the “SOCE level (percentage of inhibition)” value in assay [1] (test compound 10 μmol) was 0%; in assay [1] (test compound 30 μmol), 4%; in assay [1] (test compound 100 μmol) it was 23%. Further, the “IICR level (percentage of inhibition)” value in assay [2] (test compound 10 μmol) stood at 0%; in assay [2] (test compound 30 μmol), 0%; in assay [2] (test compound 100 μmol), 70%.

Turning to `O=C(CCN(CCO)c1ccccc1)c1ccc(Br)s1` [Example 359, 2-(N-hydroxyethyl-N-phenyl)aminoethyl-5-bromo-2-thienylketone], the inhibition at 10 µM in assay [1] (test compound 10 μmol) and in assay [2] (test compound 10 μmol) was 0% in each case. Also, the inhibition at 30 µM in assay [1] (test compound 30 μmol) came to 24%; in assay [2] (test compound 30 μmol), 0%. Also, the figures for the inhibition at 100 µM in assay [1] (test compound 100 μmol) and in assay [2] (test compound 100 μmol) were 57% and 70%, respectively.

As to `CC(O)CNCCC(=O)c1ccc(Br)s1` (stereo not drawn) [Example 360, 2-(N-2-hydroxypropyl)aminoethyl-5-bromo-2-thienylketone], the values for the inhibition at 10 µM in assay [1] (test compound 10 μmol) and in assay [2] (test compound 10 μmol) were 10% and 0%, respectively. Also, the inhibition at 30 µM in assay [1] (test compound 30 μmol) and in assay [2] (test compound 30 μmol) was 0% each time. The inhibition at 100 µM is 20% in assay [1] (test compound 100 μmol) and 70% in assay [2] (test compound 100 μmol).

As to `O=C(CCN1CCC(CCO)CC1)c1ccc(Br)s1` [Example 361, 2-(4-hydroxyethylpiperadino)ethyl-5-bromo-2-thienylketone], the inhibition at 10 µM in assay [1] (test compound 10 μmol) and in assay [2] (test compound 10 μmol) was 22% each time. The inhibition at 30 µM stood at 2% in assay [1] (test compound 30 μmol) and 0% in assay [2] (test compound 30 μmol). In addition, the inhibition at 100 µM in assay [1] (test compound 100 μmol) and in assay [2] (test compound 100 μmol) was 19% throughout.

For the molecule `CCN(CO)CCC(=O)c1ccc(Br)s1` [Example 362, 2-(N-hydroxymethyl-N-ethyl)aminoethyl-5-bromo-2-thienylketone], the inhibition at 10 µM in assay [1] (test compound 10 μmol) worked out at 11%; in assay [2] (test compound 10 μmol), 0%. The inhibition at 30 µM in assay [1] (test compound 30 μmol) stood at 13%; in assay [2] (test compound 30 μmol), 0%. Further, the inhibition at 100 µM in assay [1] (test compound 100 μmol) amounted to 23%; in assay [2] (test compound 100 μmol), 70%.

For the molecule `CN1CCN(CCC(=O)c2ccc(Br)s2)CC1` [Example 363, 2-(N-methylpiperadino)ethyl-5-bromo-2-thienylketone], the inhibition at 10 µM in assay [1] (test compound 10 μmol) and in assay [2] (test compound 10 μmol) was 0% throughout. Besides, the inhibition at 30 µM in assay [1] (test compound 30 μmol) and in assay [2] (test compound 30 μmol) was 0% throughout. For the same molecule, the values for the inhibition at 100 µM in assay [1] (test compound 100 μmol) and in assay [2] (test compound 100 μmol) were 14% and 70%, respectively.

Take `O=C(CCNCCc1cnc[nH]1)c1ccc(Br)s1` [Example 364, 2-(4-imidazolylethyl)aminoethyl-5-bromo-2-thienylketone]: the figures for the inhibition at 10 µM in assay [1] (test compound 10 μmol) and in assay [2] (test compound 10 μmol) were 24% and 0%, respectively. Moreover, the values for the inhibition at 30 µM in assay [1] (test compound 30 μmol) and in assay [2] (test compound 30 μmol) were 49% and 0%, respectively. Also, the inhibition at 100 µM in assay [1] (test compound 100 μmol) amounted to 70%; in assay [2] (test compound 100 μmol), 40%.

Source of the values: patent US8937091B2 (Japan Science and Technology Agency, priority 2009, dated 2015).
